Measured values taken from publication PMC6112376, “Comprehensive Analyses and Prioritization of Tox21 10K Chemicals Affecting Mitochondrial Function by in-Depth Mechanistic Studies” (Environmental Health Perspectives, 2018).
Where two headings read alike, the source gives them in different places.

Assays:
[1] = tested on: Caenorhabditis elegans strain PE255; settings: PE255 [sur-5::luc+::gfp; rol-6(su1006)], Caenorhabditis elegans, in vivo
HepG2 cells [2] = test: ROS-Glo hydrogen peroxide (ROS) assay; assay type: cell-based, human; settings: Homo sapiens, HepG2, 2 h, read-out: ROS (HepG2) EC50
[3] = tested on: p53 (p53-bla HCT-116 cells); test: p53 β-lactamase reporter gene assay; assay type: cell-based, human; settings: 16 h incubation, mean±SD of three experiments
[4] = tested on: HeLa cells expressing YFP-Parkin; test: Parkin translocation assay; assay type: cell-based, human
rat primary hepatocytes [5] = tested on: rat primary hepatocytes
[6] = tested on: Nrf2/ARE (ARE-bla HepG2 cells); test: ARE β-lactamase reporter gene assay; assay type: cell-based, human
HepG2 cells [7] = test: Intracellular ATP content (cell viability) assay; assay type: cell-based, human; settings: Homo sapiens, HepG2, 40 h
hNSC = test: MMP assay in human neural stem cells (hNSC); assay type: cell-based; settings: Homo sapiens, Neural stem cell, 1 h, read-out: hNSC IC50 (MMP)
rat primary hepatocytes [8] = test: MMP assay in rat primary hepatocytes; settings: Rattus norvegicus, Hepatocyte
[9] = tested on: isolated rat liver mitochondria; test: Oxygen consumption, Clark-type oxygen electrode; assay type: biochemical
[10] = tested on: Caenorhabditis elegans strain PE255; test: In vivo C. elegans ATP status assay; settings: for minimal effective concentration: Caenorhabditis elegans, read-out: LEC LUM: lowest effect concentration for luminescence, a measure of nematode ATP content
HepG2 cells [11] = test: cells; settings: Homo sapiens; for Emax: HepG2, read-out: MMP assays efficacy (%) HepG2
[12] = tested on: Caenorhabditis elegans (Bristol N2); test: C. elegans larval development and growth assay; settings: for minimal effective concentration: Caenorhabditis elegans, read-out: LEC EXT: lowest effect concentration for extinction, a measure of nematode size
HepG2 cells [13] = settings: cited from earlier work
[14] = tested on: mitochondrial respiratory chain complex V; assay type: biochemical, rat; settings: at 20μM
[15] = tested on: mitochondrial respiratory chain complex III; assay type: biochemical, rat
[16] = tested on: mitochondrial respiratory chain complex IV; assay type: biochemical, rat
[17] = tested on: mitochondrial respiratory chain complex I; assay type: biochemical, rat
[18] = target: T1, mitochondrial respiratory chain complex II (Rattus norvegicus, UniProt P21913+Q641Z9+Q6PCT8+Q920L2); test: Respiratory chain complex II activity; assay type: biochemical; settings: at 0.8μM; mean±SD of three experiments
T1 construct: Submitochondrial particles were prepared by subjecting the intact rat mitochondria, isolated as described above, to three successive freeze–thaw cycles; from tissue; host or cells: rat liver mitochondria (submitochondrial particles)
T1 sequence (Q920L2 35-656): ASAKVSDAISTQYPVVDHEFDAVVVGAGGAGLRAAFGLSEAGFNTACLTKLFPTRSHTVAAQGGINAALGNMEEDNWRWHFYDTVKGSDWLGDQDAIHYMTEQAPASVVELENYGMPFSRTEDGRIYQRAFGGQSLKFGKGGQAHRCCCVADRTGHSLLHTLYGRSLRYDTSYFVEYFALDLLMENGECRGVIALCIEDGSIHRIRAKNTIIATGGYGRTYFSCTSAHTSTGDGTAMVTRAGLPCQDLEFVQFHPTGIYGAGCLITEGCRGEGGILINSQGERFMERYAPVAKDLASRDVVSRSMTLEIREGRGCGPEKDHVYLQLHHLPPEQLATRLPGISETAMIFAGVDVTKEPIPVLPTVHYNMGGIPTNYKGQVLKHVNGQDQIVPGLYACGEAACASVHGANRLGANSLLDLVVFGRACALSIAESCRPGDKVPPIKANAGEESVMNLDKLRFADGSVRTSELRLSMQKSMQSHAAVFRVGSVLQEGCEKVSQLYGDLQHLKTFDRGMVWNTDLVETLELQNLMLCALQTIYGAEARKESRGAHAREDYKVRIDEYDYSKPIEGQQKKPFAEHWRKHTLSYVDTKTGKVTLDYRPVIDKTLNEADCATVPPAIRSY
T1 sequence (P21913 31-282): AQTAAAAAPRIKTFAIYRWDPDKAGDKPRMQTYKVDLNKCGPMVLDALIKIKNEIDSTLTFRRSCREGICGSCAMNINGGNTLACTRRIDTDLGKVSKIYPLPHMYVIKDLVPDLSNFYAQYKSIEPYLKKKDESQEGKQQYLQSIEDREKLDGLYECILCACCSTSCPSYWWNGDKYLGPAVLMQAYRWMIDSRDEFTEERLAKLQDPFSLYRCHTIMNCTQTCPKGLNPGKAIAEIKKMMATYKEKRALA
T1 sequence (Q641Z9 1-169): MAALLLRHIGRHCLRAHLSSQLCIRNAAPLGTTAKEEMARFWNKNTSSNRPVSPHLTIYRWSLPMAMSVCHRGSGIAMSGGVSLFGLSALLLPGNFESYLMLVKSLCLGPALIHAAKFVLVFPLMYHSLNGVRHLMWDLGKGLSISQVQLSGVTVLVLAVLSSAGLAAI
T1 sequence (Q6PCT8 57-159): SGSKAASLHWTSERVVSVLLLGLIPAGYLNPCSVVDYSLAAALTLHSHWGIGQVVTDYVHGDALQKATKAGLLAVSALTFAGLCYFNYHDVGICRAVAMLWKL

[19] = tested on: Caenorhabditis elegans (Bristol N2); settings: Bristol N2 (wild type), Caenorhabditis elegans, in vivo
[20] = read-out: ATP (HepG2, galactose) IC50
[21] = read-out: ATP (HepG2, glucose) IC50
[22] = 1 h, read-out: Rat hepatocytes IC50 (MMP)
[23] = read-out: MMP assays IC50 (µM) Rat Hepatocytes
[24] = HepG2, 1 h, read-out: HepG2 IC50 Galactose (MMP)
[25] = HepG2, 1 h, read-out: HepG2 IC50 Glucose (MMP)
[26] = HepG2, read-out: MMP assays IC50 (µM) HepG2

## O=C1c2c(O)ccc([N+](=O)[O-])c2C(=O)c2c([N+](=O)[O-])ccc(O)c21 [1,8-Dihydroxy-4,5-dinitroanthraquinone]
[1]
  LEC (lowest effect concentration), ATP assay: ≤ 10 µM
HepG2 cells [2]
  EC50: 34.3 µM
[3]
  p53 (HCT-116) EC50: Inactive
[4]
  Parkin recruitment: Inactive
Rat primary hepatocytes [5]
  MMP assays efficacy (%) Rat Hepatocytes: -79±33%
  Rat hepatocytes (efficacy) (MMP): 16.09±6.94 ( −119±28.1 ) %
[6]; Homo sapiens, HepG2, 16 h, read-out: ARE (HepG2) EC50
  EC50: 2.43 ± 1.38 µM
HepG2 cells [7]; [20]
  IC50: 17 µM
HepG2 cells [7]; [21]
  IC50: 27 µM
hNSC
  IC50: 3 µM
Rat primary hepatocytes [8]; [22]
  IC50: 16.1 µM
Rat primary hepatocytes [8]; [23]
  IC50: 5.69 ± 2.62 µM
[9]
  Potential Mechanism: Uncoupler at low concentrations (0.8 - 4µM), and uncoupler + inhibitor at high concentrations (20-100 µM)
[9]; 0.16 µM
  I-ADP, % of control (O2 consumption rate): 106 (52.0) % of control
  I-sub, % of control (O2 consumption rate): 104 (16.8) % of control
  II-ADP, % of control (O2 consumption rate): 98 (75.7) % of control
  II-sub, % of control (O2 consumption rate): 98 (29.9) % of control
[9]; 0.8 µM
  I-ADP, % of control (O2 consumption rate): 102 (50.0) % of control
  I-sub, % of control (O2 consumption rate): 139 (22.3) % of control
  II-ADP, % of control (O2 consumption rate): 102 (78.8) % of control
  II-sub, % of control (O2 consumption rate): 132 (40.5) % of control
[9]; 4 µM
  I-ADP, % of control (O2 consumption rate): 119 (58.8) % of control
  I-sub, % of control (O2 consumption rate): 327 (52.6) % of control
  II-ADP, % of control (O2 consumption rate): 104 (80.3) % of control
  II-sub, % of control (O2 consumption rate): 206 (63.1) % of control
[9]; 20 µM
  I-ADP, % of control (O2 consumption rate): 95 (47.0) % of control
  I-sub, % of control (O2 consumption rate): 311 (50.0) % of control
  II-ADP, % of control (O2 consumption rate): 40 (30.9) % of control
  II-sub, % of control (O2 consumption rate): 108 (33.0) % of control
[9]; 100 µM
  I-ADP, % of control (O2 consumption rate): 35 (10.0) % of control
  I-sub, % of control (O2 consumption rate): 84 (10.0) % of control
  II-ADP, % of control (O2 consumption rate): 49 (17.8) % of control
  II-sub, % of control (O2 consumption rate): 141 (20.8) % of control
[10]
  minimal effective concentration: 10 µM
HepG2 cells [11]; [24]
  IC50: 2.81 µM
HepG2 cells [11]; [25]
  IC50: 1.79 µM
HepG2 cells [11]; [26]
  IC50: 0.45 µM
HepG2 cells [11]
  Emax: 86%
[12]
  minimal effective concentration: 75 µM
HepG2 cells [13]
  MMP assays efficacy (%) qHTS-HepG2: -86±5%
HepG2 cells [13]; read-out: MMP assays IC50 (µM) qHTS-HepG2
  IC50: 0.07 ± 0.04 µM

## O=C(Nc1ccc(Oc2ccc(Cl)cc2)c(Cl)c1)c1cc(I)cc(I)c1O [Rafoxanide, reference compound]
[14]
  Complex V % inhibition: 40.1±1.87 at 20μM %
HepG2 cells [2]
  EC50: 26.5 µM
[3]; Homo sapiens
  EC50: 9.11 ± 3.81 µM
[15]
  Complex III % inhibition (activity call): Inactive
[4]
  Parkin recruitment: Active
[16]
  Complex IV % inhibition (activity call): Inactive
[17]
  Complex I % inhibition (activity call): Inactive
Rat primary hepatocytes [5]
  MMP assays efficacy (%) Rat Hepatocytes: -91±18%
  Rat hepatocytes (efficacy) (MMP): 4.50±0.81 ( −72.1±10.3 ) %
[6]; 16 h incubation, mean±SD of three experiments
  ARE (HepG2) EC50: Inactive
HepG2 cells [7]; [20]
  IC50: 54.1 µM
HepG2 cells [7]; [21]
  IC50: 46.7 µM
hNSC
  IC50: 10.3 µM
Rat primary hepatocytes [8]; [22]
  IC50: 4.5 µM
Rat primary hepatocytes [8]; [23]
  IC50: 1.86 ± 0.83 µM
[9]
  Potential Mechanism: Uncoupler + inhibitor
[9]; 0.0064 µM
  I-ADP, % of control (O2 consumption rate): 93 (51.1) % of control
  I-sub, % of control (O2 consumption rate): 94 (12.3) % of control
  II-ADP, % of control (O2 consumption rate): 100 (88.4) % of control
  II-sub, % of control (O2 consumption rate): 99 (24.3) % of control
[9]; 0.032 µM
  I-ADP, % of control (O2 consumption rate): 90 (41.4) % of control
  I-sub, % of control (O2 consumption rate): 118 (13.2) % of control
  II-ADP, % of control (O2 consumption rate): 70 (52.6) % of control
  II-sub, % of control (O2 consumption rate): 97 (20.0) % of control
[9]; 0.16 µM
  I-ADP, % of control (O2 consumption rate): 105 (48.3) % of control
  I-sub, % of control (O2 consumption rate): 163 (18.3) % of control
  II-ADP, % of control (O2 consumption rate): 63 (47.1) % of control
  II-sub, % of control (O2 consumption rate): 116 (23.9) % of control
[9]; 0.8 µM
  I-ADP, % of control (O2 consumption rate): 121 (55.6) % of control
  I-sub, % of control (O2 consumption rate): 379 (42.5) % of control
  II-ADP, % of control (O2 consumption rate): 45 (33.6) % of control
  II-sub, % of control (O2 consumption rate): 137 (28.2) % of control
[9]; 4 µM
  I-ADP, % of control (O2 consumption rate): 95 (43.7) % of control
  I-sub, % of control (O2 consumption rate): 399 (44.7) % of control
  II-ADP, % of control (O2 consumption rate): 23 (17.4) % of control
  II-sub, % of control (O2 consumption rate): 88 (18.1) % of control
[9]; 20 µM
  I-ADP, % of control (O2 consumption rate): 15 (7.1) % of control
  I-sub, % of control (O2 consumption rate): 116 (13.0) % of control
  II-ADP, % of control (O2 consumption rate): 15 (11.3) % of control
  II-sub, % of control (O2 consumption rate): 55 (11.4) % of control
[10]; 0.5 µM
  LUM: mean difference in luminescence (ATP content) relative to plate controls: 0.09174
[10]; 1 µM
  LUM: mean difference in luminescence (ATP content) relative to plate controls: -0.0514
[10]; 5 µM
  LUM: mean difference in luminescence (ATP content) relative to plate controls: 0.4289
[10]; 10 µM
  LUM: mean difference in luminescence (ATP content) relative to plate controls: 0.2032
[10]; 25 µM
  LUM: mean difference in luminescence (ATP content) relative to plate controls: 0.5878
[10]; 50 µM
  LUM: mean difference in luminescence (ATP content) relative to plate controls: 0.4453
[10]; 75 µM
  LUM: mean difference in luminescence (ATP content) relative to plate controls: 0.5488
[10]; 100 µM
  LUM: mean difference in luminescence (ATP content) relative to plate controls: 0.6986
[10]
  minimal effective concentration: 75 µM
HepG2 cells [11]; [24]
  IC50: 18.6 µM
HepG2 cells [11]; [25]
  IC50: 20.9 µM
HepG2 cells [11]; [26]
  IC50: 1.23 µM
HepG2 cells [11]
  Emax: 119%
[12]; 0.5 µM
  EXT: mean difference in nematode size relative to plate controls: -0.03197
[12]; 1 µM
  EXT: mean difference in nematode size relative to plate controls: 0.04544
[12]; 5 µM
  EXT: mean difference in nematode size relative to plate controls: 0.3092
[12]; 10 µM
  EXT: mean difference in nematode size relative to plate controls: 0.3633
[12]; 25 µM
  EXT: mean difference in nematode size relative to plate controls: 1.242
[12]; 50 µM
  EXT: mean difference in nematode size relative to plate controls: 1.69
[12]; 75 µM
  EXT: mean difference in nematode size relative to plate controls: 0.8224
[12]; 100 µM
  EXT: mean difference in nematode size relative to plate controls: 0.8924
[12]
  minimal effective concentration: 2.5 µM
HepG2 cells [13]
  MMP assays efficacy (%) qHTS-HepG2: -110±8%
HepG2 cells [13]; read-out: MMP assays IC50 (µM), qHTS-HepG2
  IC50: 3.27 ± 1.76 µM
[18]
  inhibition at 0.8 µM: 44.4 ± 6.56%
[19]
  LEC (lowest effect concentration), larval growth assay: ≤ 10 µM
